The target of data set [1] is T1, Rhodococcus rhodochrous strain J1-derived nitrile hydratase (Rhodococcus rhodochrous, UniProt P21219+P21220).
T1 construct: made in house; host or cells: Rhodococcus rhodochrous ATCC12674 transformed with pSJ034; crude cell-free extract
T1 sequence (P21219 1-203): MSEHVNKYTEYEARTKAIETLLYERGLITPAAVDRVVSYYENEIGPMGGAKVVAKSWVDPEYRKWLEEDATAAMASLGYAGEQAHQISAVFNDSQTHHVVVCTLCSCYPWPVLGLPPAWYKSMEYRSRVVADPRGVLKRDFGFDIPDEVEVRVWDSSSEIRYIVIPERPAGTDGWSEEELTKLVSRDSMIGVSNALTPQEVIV
T1 sequence (P21220 1-229): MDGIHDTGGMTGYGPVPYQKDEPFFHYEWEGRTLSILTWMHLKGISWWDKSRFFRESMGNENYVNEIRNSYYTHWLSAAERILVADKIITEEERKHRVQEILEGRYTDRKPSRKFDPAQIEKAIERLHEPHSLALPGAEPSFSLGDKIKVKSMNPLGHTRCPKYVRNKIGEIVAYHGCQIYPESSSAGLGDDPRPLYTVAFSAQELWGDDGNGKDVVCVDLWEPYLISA
The data set can be described thus: HPLC analysis on nitrile hydratase-catalyzed reaction solution (Example 5). Type of data set: biochemical. The note with it: 37° C., 5 hours, absorption at 500 nm. As to the method: (§1) After reaction at 37° C. for 5 hours as described above, the reaction solution was analyzed by HPLC under the following conditions. • Model: fluid delivery pump PU-2080 (JASCO) • Column: Inertsil ODS-3 (4.6×250 mm) column (GL Sciences Inc.) • Solvent: eluted with a linear gradient from 75% acetonitrile/0.1% TFA in water (0 min) to 15% acetonitrile/0.1% TFA in water (30 min) • Detection: detector MD-2010 (JASCO), monitored by absorption at 500 nm

Data set [2] deals with Rhodococcus sp. strain SK92-derived nitrilase. Put plainly: Detection of nitrilase-catalyzed enzymatic reaction using fluorometer (Example 6). Type of data set: biochemical. As to the method:
(§2) 178 μL of sodium phosphate buffer (200 mM, pH 7.3) and 2 μL of 1 mM fluorescent substrate (compound 7 or compound 2: dissolved in DMSO) were mixed together and pre-incubated at 37° C. The cell-free extract prepared above (20 μL) was added to initiate the reaction. Sampling was conducted at one hour intervals by addition of 380 μL sodium phosphate buffer (200 mM, pH 7.3) to 20 μL reaction solution, and each sample was measured for its fluorescence using a spectrophotofluorometer, model F-4500 (Hitachi High-Technologies Corporation, Japan). The measurement was performed with 490 nm excitation light under the following conditions: a slit width of 2.5 nm/2.5 nm, a photomultiplier voltage of 700 V and 37° C.
Nitrilase solution was prepared in the same manner as shown in Example 3.
Detection was conducted in accordance with the procedures shown in Example 5, provided that the compound used in the experiment was compound 7 and the enzyme solutions used were a cell-free extract derived from JM109/pSK002 (containing nitrilase) and a cell-free extract derived from the above control strain JM109/pTrc99A (having no nitrilase activity).

The nature of data set [3]: Fluorescence quantum yield, absolute PL quantum yield measurement system (Quantaurus-QY). The note with it: 0.2 μM, 0.02% DMSO, 200 mM sodium phosphate buffer pH 7.3, 470 nm excitation light. The class given is physicochemical. As to the method:
The absorption spectra and fluorescence quantum yields of the compounds were measured as follows.
A 1 mM solution of compound 7 in DMSO was prepared and this solution was added to 200 mM sodium phosphate buffers of pH 2 to 12 to prepare 1 μM sample solutions containing 0.1% DMSO. These sample solutions were measured for their absorption spectra between 300 nm and 600 nm with an ultraviolet and visible spectrophotometer UV-2450 (Shimadzu Corporation, Japan). In addition, a 0.2 μM sample solution of compound 7 containing 0.02% DMSO in 200 mM sodium phosphate buffer (pH 7.3) was prepared and measured for its fluorescence quantum yield using an absolute PL quantum yield measurement system, Quantaurus-QY (Hamamatsu Photonics K.K., Japan), under irradiation with 470 nm excitation light.

Data set [4] addresses T1, Rhodococcus rhodochrous strain J1-derived nitrile hydratase. Put plainly: Detection of nitrile hydratase-catalyzed enzymatic reaction using fluorometer (Example 5). To be noted: for increase in fluorescence in comparison with a solution not containing the cell-free extract: crude nitrile hydratase solution, 37° C., 5 h after addition, 490 nm excitation light. Type of data set: biochemical. As to the method:
Nitrile hydratase solution was prepared in the same manner as shown in Example 2.
as §2

For data set [5], the system named is Rhodococcus sp. strain SK92-derived nitrilase. The data set can be described thus: HPLC analysis on nitrilase-catalyzed reaction solution (Example 6). Type of data set: biochemical. The method, then: as §1
Nitrilase activity was analyzed in accordance with the procedures shown in Example 4.

Data set [6] is described as follows: Stability of product in nitrilase-catalyzed reaction solution by HPLC (Example 7). The class given is in vitro ADME. To be noted: absorption at 500 nm. The method, then: (§3) Product stability after enzymatic reaction was studied by HPLC analysis.
(§4) For HPLC analysis of the nitrile hydratase-catalyzed reaction solution (160 μL), the above pump, column, solvent conditions and detector were used to monitor absorption at 500 nm. On the other hand, for analysis of the nitrilase-catalyzed reaction solution (160 μL), the same procedure as used for analysis of the nitrile hydratase-catalyzed reaction solution was repeated to monitor absorption at 500 nm.

Data set [7] can be described thus: Fluorescence quantum yield measurement of compounds 1 to 6. The class given is physicochemical. The method, then:
Compounds 1 to 6 obtained above were measured for their fluorescence.
Compounds 1 to 6 were also measured for their fluorescence quantum yield (Φfl). […] With respect to compounds 5 and 6, it should be noted that their fluorescence quantum yields were calculated as values in isolated form based on the concentration ratio determined by HPLC.

The test system of data set [8] is Rhodococcus sp. strain SK92-derived nitrilase. Put plainly: Nitrilase-catalyzed reaction with cell-free extract, detection with fluorescence imager (Example 3). The class given is biochemical. The note with it: 30° C., 1 hour, excited at 488 nm, detected at 530 nm; JM109/pUC118 control showed no change. As to the method:
10 μL of sodium phosphate buffer (pH 7.0), 75 μL of sterilized water and 5 μL of 0.01 mM nitrile fluorescent substrate (compound 2: dissolved in 10% DMSO) were mixed together and pre-incubated at 30° C. The cell-free extract prepared above (10 μL) was added to initiate the reaction. After the reaction at 30° C. for 1 hour, the mixture was transferred to a 96-well microplate and fluorescence was detected with a fluorescence imager (BioRad Pharos FX molecular Imager, excited at 488 nm, detected at 530 nm).
A recombinant E. coli, JM109/pSK002, which highly expresses Rhodococcus sp. strain SK92-derived nitrilase (JP 8-173169 A) was inoculated into 1 ml of a 50 ampicillin-containing LB medium (1% Bactotryptone, 0.5% Bactoyeast extract, 0.5% NaCl) and pre-cultured at 37° C. for 7 hours. The culture broth was taken in a volume of 0.1 ml and added to 100 ml of the same medium (containing 50 μg/ml ampicillin and 1 mM IPTG), followed by shaking culture at 37° C. for 15 hours. The resulting culture broth was centrifuged (3,700×g, 10 minutes, 4° C.) to collect the cells, which were then washed with 10 mM sodium phosphate buffer (pH 7.0) and suspended in the same buffer. As a control strain, JM109/pUC118 was used. […]
In the same manner as shown in Example 2, the reaction was performed using a nitrile fluorescent substrate (compound 2), followed by detection with a fluorescence imager.

For data set [9] the test system is unchanged. The data set can be described thus: Nitrilase-catalyzed reaction for 24 hours, observation by the naked eye (Example 4). The class given is biochemical. To be noted: 0.1 mM substrate stock, JM109/pUC118 control showed little change in color. As to the method:
10 μL of sodium phosphate buffer (pH 7.0), 75 μL of sterilized water and 5 μL of 0.1 mM nitrile fluorescent substrate (compound 2: dissolved in DMSO) were mixed together and pre-incubated at 30° C. A cell-free extract (10 μL), which had been prepared in the same manner as shown in Example 3, was added to initiate the reaction.

Data set [10] concerns the target T1, Rhodococcus rhodochrous strain J1-derived nitrile hydratase. Put plainly: Nitrile hydratase-catalyzed reaction with cell-free extract, detection with fluorescence imager (Example 2). Type of data set: biochemical. To be noted: 30° C., 1 hour, excited at 488 nm, detected at 530 nm; vector pK4 control showed no change. From the text:
Plasmid pSJ034 designed to constitutively express Rhodococcus rhodochrous strain J1-derived nitrile hydratase in Rhodococcus bacterial cells was introduced into Rhodococcus rhodochrous strain ATCC12674. pSJ034 has been prepared from plasmid pSJ023 as described in the specification of JP 10-337185 A. pSJ023 was deposited as a transformant, R. rhodochrous ATCC12674/pSJ023 (FERM BP-6232), with the International Patent Organism Depositary, the National Institute of Advanced Industrial Science and Technology.
Rhodococcus rhodochrous strain ATCC12674 was transformed with plasmid pSJ034 to prepare ATCC12674/pSJ034. The strain 12674 was also transformed with vector pK4 for use in a control experiment.
The colony was cultured as follows. The colony was inoculated into a kanamycin (50 mg/L)-containing MYK medium (10 ml) and pre-cultured at 30° C. for 24 hours. […]
10 μL of sodium phosphate buffer (pH 7.0), 75 μL of sterilized water and 5 μL of 0.01 mM nitrile fluorescent substrate (compound 2: dissolved in 10% DMSO) were mixed together and pre-incubated at 30° C. […] After the reaction at 30° C. for 1 hour, the mixture was transferred to a 96-well microplate and fluorescence was detected with a fluorescence imager (BioRad Pharos FX molecular Imager, excited at 488 nm, detected at 530 nm).

The nature of data set [11]: Stability of product in nitrile hydratase-catalyzed reaction solution by HPLC (Example 7). To be noted: absorption at 500 nm. Type of data set: in vitro ADME. As to the method: as §3, §4
The mark [12] stands for this setting: calculated as values in isolated form based on the concentration ratio determined by HPLC (mixture of compounds 5 and 6).

Read-outs that look alike come from different tables or passages of the source.

Regarding `N#Cc1ccc(-c2c3ccc(=O)cc-3oc3cc(O)ccc23)c(C(=O)OCc2ccc(Cl)cc2)c1` [compound 7, 5-cyanofluorescein-4-chlorobenzyl ester], the “HPLC peak of substrate after nitrile hydratase-catalyzed reaction” value in data set [1] is listed as “disappeared, while a peak of a new product generated by the enzymatic reaction appeared”. Moreover, in [2] (JM109/pSK002-derived cell-free extract (containing nitrilase), 5 h after addition), the “increase in fluorescence in comparison with the absence of the cell-free extract” value is listed as approximately 7.5 fold. Also, the “increase in fluorescence with control cell-free extract” value in data set [2] (JM109/pTrc99A-derived cell-free extract (having no nitrilase activity)) is reported as “little increase in its fluorescence”. The fluorescence quantum yield in data set [3] amounted to 0.154. The “increase in fluorescence in comparison with a solution not containing the cell-free extract” value in data set [4] was approximately 7.2 fold. Moreover, the “increase in fluorescence relative to that of compound 2” value in [4] (nitrile hydratase reaction, compound 7 versus compound 2) stood at 1.5 fold. Further, in data set [5] (JM109/pSK002-derived cell-free extract, absorption at 500 nm), the “HPLC peak of substrate after nitrilase-catalyzed reaction” value is given as “disappeared, while a peak of a new product generated by the enzymatic reaction appeared”. Moreover, in data set [5] (JM109/pTrc99A-derived cell-free extract), the “reaction product by HPLC with control cell-free extract” value was “no reaction product was observed”.

Regarding `O=C(O)c1ccc(-c2c3ccc(=O)cc-3oc3cc(O)ccc23)c(C(=O)OCc2ccc(Cl)cc2)c1` [compound 11], in [6], the “HPLC peak corresponding to ester hydrolysis product 5-carboxylfluorescein” value is “not observed”.

Take `COC(=O)c1ccc(C#N)cc1-c1c2ccc(=O)cc-2oc2cc(O)ccc12` [compound 1]: in data set [7], the “Fluorescence quantum yield (Φf1)” value is 0.007.

Regarding `COC(=O)c1cc(C(N)=O)ccc1-c1c2ccc(=O)cc-2oc2cc(O)ccc12` [compound 4], in data set [7], the “Fluorescence quantum yield (Φf1)” value stood at 0.397.

As to `COC(=O)c1ccc(C(N)=O)cc1-c1c2ccc(=O)cc-2oc2cc(O)ccc12` [compound 3], the “Fluorescence quantum yield (Φf1)” value in data set [7] was found to be 0.018.

For the compound `COC(=O)c1cc(C(=O)O)ccc1-c1c2ccc(=O)cc-2oc2cc(O)ccc12` [compound 6], the “Fluorescence quantum yield (Φf1)” value in data set [7] (setting [12]) was 0.565.

As to `COC(=O)c1ccc(C(=O)O)cc1-c1c2ccc(=O)cc-2oc2cc(O)ccc12` [compound 5], the “Fluorescence quantum yield (Φf1)” value in data set [7] (setting [12]) was 0.0729.

For the compound `COC(=O)c1cc(C#N)ccc1-c1c2ccc(=O)cc-2oc2cc(O)ccc12` [compound 2], the “change in intensity of fluorescence with nitrilase-expressing recombinant cell-free extract” value in [8] was “significant increase in the intensity of fluorescence”. Also, the “fluorescence observed by the naked eye with nitrilase-expressing recombinant cell-free extract” value in [9] is “significant green fluorescence was observed”. In [3], this compound had a fluorescence quantum yield of 0.172. The “Fluorescence quantum yield (Φf1)” value in data set [7] is 0.161. In [4], the “increase in fluorescence in comparison with a solution not containing the cell-free extract” value is listed as approximately 3.9 fold. Moreover, the “change in intensity of fluorescence with nitrile hydratase-expressing recombinant cell-free extract” value in data set [10] was “significant increase in the intensity of fluorescence”.

On to `NC(=O)c1ccc(-c2c3ccc(=O)cc-3oc3cc(O)ccc23)c(C(=O)OCc2ccc(Cl)cc2)c1` [compound 9, 5-CONH2 fluorescein 4-chlorobenzyl ester], for which the “HPLC peak corresponding to ester hydrolysis product 5-CONH2 fluorescein” value in [11] is listed as “not observed”.

(Values after patent US20140072990A1, “FLUORESCENT SUBSTRATE FOR DETECTION OF ENZYMATIC ACTIVITY OF NITRILE-RELATED ENZYME” (The University of Tokyo, priority 2010, published 2014).)
